This note sets out measurements from patent US5114936A, “6,7-dihydro-3-phenyl-1,2-benzisoxazol-4(5H)-ones and -ols, compositions and pharmaceutical use” (Hoechst-Roussel Pharmaceuticals Incorporated, priority 1991, dated 1992).

SMILES strings stand for the structures. Structures can show the parent of a compound that is named as a salt.

In the first experiment the test system is apomorphine climbing. The experiment in a line: Climbing Mice Assay (antagonism of apomorphine-induced climbing). The experiment is classed as in vivo, mice (CK-1 male mice). To be noted: Mus musculus; ip; apomorphine 1.5 mg/kg subcutaneously. The protocol: Antipsychotic activity is determined in the Climbing Mice Assay by a method similar to that described by P. Protais, et al., Psychopharmacol., 50, 1 (1976) and B. Costall, Eur. J. Pharmacol., 50, 39 (1978).
The subject CK-1 male mice (23-27 grams) are group-housed under standard laboratory conditions. The mice are individually placed in wire mesh stick cages (4"×4"×10") and are allowed one hour for adaptation and exploration of the new environment. Then apomorphine is injected subcutaneously at 1.5 mg/kg, a dose causing climbing in all subjects for 30 minutes.
Compounds to be tested for antipsychotic activity are injected intraperitoneally or given orally at various time intervals, e.g. 30 minutes, 60 minutes, etc. prior to the apomorphine challenge at a screening dose of 10-60 mg/kg.
For evaluation of climbing, 3 readings are taken at 10, 20 and 30 minutes after apomorphine administration according to the following scale:
4 paws on bottom (no climbing)
2 paws on the wall (rearing)
4 paws on the wall (full climb)
Mice consistently climbing before the injection of apomorphine will be discarded.
With full-developed apomorphine climbing, the animals are hanging on to the cage walls, rather motionless, over longer periods of time. By contrast, climbs due to mere motor stimulation usually only last a few seconds.
The climbing scores are individually totaled (maximal score: 6 per mouse over 3 readings) and the total score of the control group (vehicle intraperitoneally-apomorphine subcutaneously) is set to 100%. ED50 values with 95% confidence limits, calculated by a linear regression analysis, of some of the compounds of the instant invention as well as a standard antipsychotic agent are presented in Table I.
`COc1ccccc1N1CCN(CCCC2CCc3onc(-c4ccccc4)c3C2=O)CC1` (stereo not drawn) [Example 14, 6,7-Dihydro-5-[3-(4-(2-methoxyphenyl)-1-piperazinyl)-propyl]-3-phenyl-1,2-benzisoxazol-4(5H)-one dihydrochloride] yielded an ED50 of 15 mg/kg.
On the same count and under the same terms, the value for `Cl.O=C(c1ccc(F)cc1)C1CCN(CCCC2CCc3onc(-c4ccccc4F)c3C2=O)CC1` (stereo not drawn) [Example 19, 6,7-Dihydro-5-[3-(4-(4-fluorobenzoyl)-1-piperidinyl)-propyl]-3-(2-fluorophenyl)-1,2-benzisoxazol-4(5H)-one hydrochloride] was 2.9 mg/kg.
The same measure, in the same setting: the value for `CN1CCN(C2=Nc3cc(Cl)ccc3Nc3ccccc32)CC1` [clozapine, reference compound] was 9 mg/kg.
The compound `Cl.O=C1c2c(-c3ccccc3)noc2CCC1CCCN1CCC(c2ccc(F)cc2)CC1` (stereo not drawn) [6,7-dihydro-5-[3-(4-(4-fluorophenyl)-1-piperidinyl)-propyl]-3-phenyl-1,2-benzisoxazol-4(5H)-one hydrochloride] registered an ED50 of 6.36 mg/kg.
On the same count and under the same terms, to `O=C(c1ccc(F)cc1)C1CCN(CCCC2CCc3onc(-c4cccc(F)c4)c3C2=O)CC1` (stereo not drawn) [Example 26, 6,7-Dihydro-5-[3-(4-(4-fluorobenzoyl)-1-piperidinyl)-propyl]-3-(3-fluorophenyl)-1,2-benzisoxazol-4(5H)-one hydrochloride] belongs 5.7 mg/kg.
As for `O=C(c1ccc(F)cc1)C1CCN(CCCC2CCc3onc(-c4ccc(F)cc4)c3C2=O)CC1` (stereo not drawn) [Example 20, 6,7-Dihydro-5-[3-(4-(4-fluorobenzoyl)-1-piperidinyl)-propyl]-3-(4-fluorophenyl)-1,2-benzisoxazol-4(5H)-one hydrochloride], the ED50 turned out to be 6.2 mg/kg.

The next experiment concerns phenyl-p-quinone writhing. The experiment in a line: phenyl-p-quinone writhing assay (analgesia). The experiment is classed as in vivo, mice. To be noted: Mus musculus, sc; s.c; read-out: ED50 Inhibition of Writhing. From the text:
Exptl. Biol. Med. 95, 729 (1957)]
As for `COc1ccccc1N1CCN(CCCC2CCc3onc(-c4ccccc4)c3C2=O)CC1` (stereo not drawn) [Example 14, 6,7-Dihydro-5-[3-(4-(2-methoxyphenyl)-1-piperazinyl)-propyl]-3-phenyl-1,2-benzisoxazol-4(5H)-one dihydrochloride], the ED50 worked out at 5.18 mg/kg.
As to `CCC(=O)O[C@](Cc1ccccc1)(c1ccccc1)[C@H](C)CN(C)C` [propoxyphene, reference compound], the ED50 came out at 3.9 mg/kg.
As for `O=C(c1ccc(F)cc1)C1CCN(CCCC2CCc3onc(-c4ccccc4)c3C2=O)CC1` (stereo not drawn) [Example 15, 6,7-Dihydro-5-[3-(4-(4-fluorobenzoyl)-1-piperidinyl)-propyl]-3-phenyl-1,2-benzisoxazol-4(5H)-one hydrochloride], the ED50 was 3.99 mg/kg.
